Results as given in patent US10913753B2, “Thienopyridine carboxamides as ubiquitin-specific protease inhibitors” (FORMA Therapeutics, Inc., priority 2016, dated 2021).

Experiments:
USP28 = USP28 (Homo sapiens (Human), UniProt Q96RU2); assay: Ubiquitin-Rhodamine 110 Assay for USP28 Activity; type: biochemical
Method: The assay was performed in a final volume of 20 μL in assay buffer containing 20 mM Tris-HCl (pH 8.0, (1M Tris-HCl, pH 8.0 solution; Corning 46-031-CM)), 2 mM CaCl2 (1M Calcium Chloride solution; Sigma #21114) 2 mM BME (2-Mercaptoethanol; Sigma 63689-25ML -F), 0.01% Prionex (0.22 μM filtered, Sigma #G-0411), and 0.01% Triton X-100. Stock compound solutions were stored at −20° C. as 10 mM in DMSO. Up to 1 month prior to the assay, 2 mM test compounds were pre-dispensed into assay plates (Black, low volume; Corning #3820) and frozen at −20° C. Prestamped assay plates were allowed to come to room temperature on the day of the assay. For the screen, 100 nL of 2 mM was pre-dispensed for a final screening concentration of 10 μM (DMSO(fc)=0.5%). […] Plates were incubated stacked for 90 minutes at room temperature before fluorescence was read on the Envision (Excitation at 485 nm and Emission at 535 nm; Perkin Elmer) or on the PheraSTAR (Excitation at 485 nm and Emission at 535 nm; BMG Labtech).
For follow-up studies, the assay was performed in a final volume of 15 μL in assay buffer containing 20 mM Tris-HCl (pH 8.0, (1M Tris-HCl, pH 8.0 solution; Corning 46-031-CM)), 3 mM BME (2-Mercaptoethanol; Sigma 63689-25ML-F), 0.03% BGG (0.22 μM filtered, Sigma, G7516-25G), and 0.01% Triton X-100 (Sigma, T9284-10L). Nanoliter quantities of either an 8-point or 10-point, 3-fold serial dilution in DMSO was pre-dispensed into assay plates (Perkin Elmer, ProxiPlate-384 F Plus) for a final test concentration of either 25 μM to 11 nM or 25 μM to 1.3 nM, respectively. Enzyme USP28, construct USP28 (USP28-5(1-1077)-TEV-6*His; LifeSensors) concentration and incubation times were optimized for the maximal signal-to -background while maintaining initial velocity conditions at a fixed substrate concentration. The final concentration of the enzyme in the assay was 75 pM. […] 5 μL of 2× enzyme was added to assay plates (pre-stamped with compound) preincubated with USP28 for 30 minutes and then 5 μL of 2× Ub-Rh110 was added to assay plates. Plates were incubated stacked for 20 min at room temperature before 5 μL of stop solution was added (final concentration of 10 mM citric acid (Sigma, 251275-500G)). Fluorescence was read on the Envision (Excitation at 485 nm and Emission at 535 nm; Perkin Elmer) or on the PheraSTAR (Excitation at 485 nm and Emission at 535 nm; BMG Labtech).
(§1) For both the USP28 and USP25 assay formats, data were reported as percent inhibition compared with control wells based on the following equation: % inh=1-((FLU-AveLow)/(AveHigh−AveLow)) where FLU=measured Fluorescence, AveLow=average Fluorescence of no enzyme control (n=16), and AveHigh=average Fluorescence of DMSO control (n=16). IC50 values were determined by curve fitting of the standard 4 parameter logistic fitting algorithm included in the Activity Base software package: IDBS XE Designer Model205. Data is fitted using the Levenburg Marquardt algorithm.

USP25 = USP25 (Homo sapiens (Human), UniProt Q9UHP3); assay: Ubiquitin-Rhodamine 110 Assay for USP25 Activity; type: biochemical
USP25, sequence (Q9UHP3 whole entry): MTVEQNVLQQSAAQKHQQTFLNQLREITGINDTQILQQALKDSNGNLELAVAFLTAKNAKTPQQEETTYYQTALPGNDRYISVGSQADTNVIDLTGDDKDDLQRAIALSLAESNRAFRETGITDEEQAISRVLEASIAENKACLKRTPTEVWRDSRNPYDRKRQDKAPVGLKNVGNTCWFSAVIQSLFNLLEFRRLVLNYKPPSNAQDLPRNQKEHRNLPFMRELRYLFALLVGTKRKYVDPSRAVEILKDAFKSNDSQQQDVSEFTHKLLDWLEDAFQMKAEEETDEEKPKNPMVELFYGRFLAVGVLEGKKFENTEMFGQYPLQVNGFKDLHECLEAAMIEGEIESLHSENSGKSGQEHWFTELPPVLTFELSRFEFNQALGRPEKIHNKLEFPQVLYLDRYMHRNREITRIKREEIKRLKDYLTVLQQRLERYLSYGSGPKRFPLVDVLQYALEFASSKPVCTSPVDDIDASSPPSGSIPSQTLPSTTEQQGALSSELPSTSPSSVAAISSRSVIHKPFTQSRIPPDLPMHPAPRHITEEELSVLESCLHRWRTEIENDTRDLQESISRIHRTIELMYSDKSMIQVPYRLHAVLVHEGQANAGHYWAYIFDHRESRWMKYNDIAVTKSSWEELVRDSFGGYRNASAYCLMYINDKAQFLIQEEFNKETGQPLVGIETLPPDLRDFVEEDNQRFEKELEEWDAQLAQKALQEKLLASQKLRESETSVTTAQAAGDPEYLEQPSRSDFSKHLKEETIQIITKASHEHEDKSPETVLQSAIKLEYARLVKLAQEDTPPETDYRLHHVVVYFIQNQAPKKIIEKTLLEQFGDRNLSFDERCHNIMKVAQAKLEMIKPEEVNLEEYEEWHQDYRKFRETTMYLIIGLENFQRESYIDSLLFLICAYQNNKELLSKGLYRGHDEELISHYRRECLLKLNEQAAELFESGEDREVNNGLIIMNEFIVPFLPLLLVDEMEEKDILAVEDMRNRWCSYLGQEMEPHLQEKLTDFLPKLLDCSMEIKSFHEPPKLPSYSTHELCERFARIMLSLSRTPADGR
Method: The assay was performed in a final volume of 9 μL in assay buffer containing 20 mM Tris-HCl (pH 8.0, (1M Tris-HC1, pH 8.0 solution; Corning 46-031-CM)), 3 mM BME (2-Mercaptoethanol; Sigma 63689-25ML-F), 0.03% BGG (0.22 μM filtered, Sigma, G7516-25G), and 0.01% Triton X-100 (Sigma, T9284-10L). Nanoliter quantities of 10-point, 3-fold serial dilution in DMSO was pre-dispensed into 1536 assay plates (Corning, #3724BC) for a final test concentration of 25 μM to 1.3 nM, top to lowest dose, respectively. Enzyme USP25, construct USP25-His6, (Boston Biochem E-546). Concentration and incubation times were optimized for the maximal signal-to-background while maintaining initial velocity conditions at a fixed substrate concentration. The final concentration of the enzyme in the assay was 75 pM. […] 3 μL of 2× enzyme was added to assay plates (pre-stamped with compound) preincubated with […] for 30 minutes and then 3 μL of 2× Ub-Rh110 was added to assay plates. Plates were incubated for 45 minutes at room temperature before addition of 3 μL of stop solution (final concentration of 10 mM citric acid (Sigma, 251275-500G)). Fluorescence was read on the Envision (Excitation at 485 nm and Emission at 535 nm; Perkin Elmer) or on the PheraSTAR (Excitation at 485 nm and Emission at 535 nm; BMG Labtech).
as §1

USP28, sequence (Q96RU2 whole entry): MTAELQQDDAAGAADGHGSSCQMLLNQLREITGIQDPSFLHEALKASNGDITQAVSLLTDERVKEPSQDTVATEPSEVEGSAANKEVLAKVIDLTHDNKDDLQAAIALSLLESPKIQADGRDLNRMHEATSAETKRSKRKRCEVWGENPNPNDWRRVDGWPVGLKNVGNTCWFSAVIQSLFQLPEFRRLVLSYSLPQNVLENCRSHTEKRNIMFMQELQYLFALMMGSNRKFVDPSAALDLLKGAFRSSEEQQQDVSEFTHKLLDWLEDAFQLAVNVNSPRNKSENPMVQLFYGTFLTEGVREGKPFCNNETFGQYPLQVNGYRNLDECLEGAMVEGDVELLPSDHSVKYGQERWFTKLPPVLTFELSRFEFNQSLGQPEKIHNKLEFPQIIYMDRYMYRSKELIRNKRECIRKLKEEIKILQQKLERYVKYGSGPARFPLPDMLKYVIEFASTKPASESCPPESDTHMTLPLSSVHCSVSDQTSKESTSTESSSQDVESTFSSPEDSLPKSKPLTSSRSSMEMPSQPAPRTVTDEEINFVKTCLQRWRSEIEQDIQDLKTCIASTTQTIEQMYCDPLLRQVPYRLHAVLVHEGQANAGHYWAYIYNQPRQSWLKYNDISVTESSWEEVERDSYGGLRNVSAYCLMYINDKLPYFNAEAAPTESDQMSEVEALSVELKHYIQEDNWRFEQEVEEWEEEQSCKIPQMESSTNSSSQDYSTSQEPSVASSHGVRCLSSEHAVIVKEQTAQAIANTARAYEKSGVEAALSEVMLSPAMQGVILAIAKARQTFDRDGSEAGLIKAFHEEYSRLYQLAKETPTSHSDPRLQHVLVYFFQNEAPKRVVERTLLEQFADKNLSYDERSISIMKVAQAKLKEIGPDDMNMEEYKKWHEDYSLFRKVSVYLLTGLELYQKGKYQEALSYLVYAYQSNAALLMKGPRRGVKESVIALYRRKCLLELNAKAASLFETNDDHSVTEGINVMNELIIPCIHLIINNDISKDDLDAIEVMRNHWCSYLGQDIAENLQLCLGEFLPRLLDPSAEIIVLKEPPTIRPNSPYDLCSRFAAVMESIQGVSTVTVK

Row | Structure (SMILES) | IC50 (USP28) | IC50 (USP25)
1 | Cc1nc2sc(C(=O)NCCc3ccc(N4CCNCC4)cc3)c(N)c2cc1C1CC1 [Example I-197, 3-Amino-5-cyclopropyl-6-methyl-N-(4-(piperazin-1-yl)phenethyl)thieno[2,3-b]pyridine-2-carboxamide] | 2 to 10 µM | 10 to 25 µM
2 | CN[C@H]1CN(c2cc(F)c(CCNC(=O)c3sc4nc(C)ccc4c3N)cc2F)C[C@@H]1F (single isomer, unassigned) [Example I-214] | 0.2 to 2 µM | 2 to 10 µM
3 | Cc1ccc2c(N)c(C(=O)NCCc3ccc(N4CCNCC4)cc3C)sc2n1 [Example I-89] | < 0.2 µM | 0.2 to 2 µM
4 | Cc1nc2sc(C(=O)NC[C@@H](C)c3cc(F)c(N4CC5CCC(C4)N5)cc3F)c(N)c2cc1F (single isomer, unassigned) [Example I-111] | < 0.2 µM | 0.2 to 2 µM
5 | Cc1ccc2c(N)c(C(=O)NCCc3ccc(N4CCN(CC5CCO5)CC4)cc3)sc2n1 (stereo not drawn) [Compound I-25] | 0.2 to 2 µM | 2 to 10 µM
6 | C[C@@H](O)c1ccc2c(N)c(C(=O)NCCc3ccc(N4CCNCC4)cc3)sc2n1 (single isomer, unassigned) [Example I-222] | 0.2 to 2 µM | 0.2 to 2 µM
7 | Cc1ccc2c(N)c(C(=O)NCCc3ccc(N4CCNCC4)c(OC(F)F)c3)sc2n1 [Example I-73, 3-Amino-N-(3-(difluoromethoxy)-4-(piperazin-1-yl)phenethyl)-6-methylthieno[2,3-b]pyridine-2-carboxamide] | 0.2 to 2 µM | 0.2 to 2 µM
8 | CNC1CN(c2cc(F)c(CCNC(=O)c3sc4nc(C)ccc4c3N)cc2F)C1 [Example I-199, 3-Amino-N-(2,5-difluoro-4-(3-(methylamino)azetidin-1-yl)phenethyl) -6-methylthieno[2,3-b]pyridine-2-carboxamide] | 0.2 to 2 µM | 0.2 to 2 µM
9 | Cc1ccc2c(N)c(C(=O)NCCc3ccc(O[C@H]4COC5(CNC5)C4)cc3)sc2n1 (single isomer, unassigned) [Example I-219] | 0.2 to 2 µM | 0.2 to 2 µM
10 | Cc1ccc2c(N)c(C(=O)NCCc3ccc(-c4cnn5c4CNCC5)cc3)sc2n1 [Compound I-12] | < 0.2 µM | 0.2 to 2 µM
11 | Cc1ccc2c(N)c(C(=O)NCCc3ccc(N4CC[C@H](N(C)C)C4)cc3)sc2n1 [Example I-118] | 0.2 to 2 µM | –
12 | Nc1c(C(=O)NCCc2ccc(C3CCNCC3)cc2)sc2nc(Cl)ccc12 [Compound I-60] | 0.2 to 2 µM | 0.2 to 2 µM
13 | CN[C@H]1CCN(c2ccc(CCNC(=O)c3sc4nc(C)ccc4c3N)cc2Cl)C1 [Example I-79] | 0.2 to 2 µM | 0.2 to 2 µM
14 | Cc1ccc2c(N)c(C(=O)NCCc3ccc(N4CCN[C@@H](CO)C4)cc3)sc2n1 [Example I-87] | < 0.2 µM | 0.2 to 2 µM
15 | Cc1ccc2c(N)c(C(=O)NCCc3ccc(N4CCn5cncc5C4)cc3)sc2n1 [Example I-120] | < 0.2 µM | –
16 | CN[C@@H]1CCN(c2cc(F)c(CCNC(=O)c3sc4nc(C)ccc4c3N)cc2F)C1 [Compound I-49] | < 0.2 µM | –
17 | Nc1c(C(=O)NCCc2ccc(N3CCNCC3)cc2)sc2nc(C3CC3)ccc12 [Example I-114, 3-Amino-6-cyclopropyl-N-(4-(piperazin-1-yl)phenethyl)thieno[2,3-b]pyridine-2-carboxamide] | < 0.2 µM | –
18 | Cc1nc2sc(C(=O)NCCc3ccc(N4CCNCC4)c(Cl)c3)c(N)c2cc1F [Compound I-9] | 0.2 to 2 µM | –
19 | CCc1nc2sc(C(=O)NCCc3cc(F)c(N4CCNCC4)cc3F)c(N)c2cc1F [Compound I-55] | < 0.2 µM | –
20 | Cc1ccc2c(N)c(C(=O)NCCc3ccc(N4CC[C@@H](N(C)C)C4)cc3)sc2n1 [Example I-117] | 0.2 to 2 µM | –
21 | Cc1ccc2c(N)c(C(=O)NCCc3ccc(N4CC5CNCC(C4)O5)cc3)sc2n1 [Compound I-66] | < 0.2 µM | –

Row | Structure (SMILES) | IC50 (USP28) | IC50 (USP25)
22 | Cc1ccc2c(N)c(C(=O)NCCc3ccc(N4CCNCC4)c(C(F)(F)F)c3)sc2n1 [Compound I-3] | 0.2 to 2 µM | –
23 | COc1ccc2c(N)c(C(=O)NCCc3cc(F)c(N4CCNCC4)cc3F)sc2n1 [Compound I-51] | < 0.2 µM | –
24 | Cc1ccc2c(N)c(C(=O)NCCc3cc(F)c(N4CCNCC4)c(F)c3)sc2n1 [Compound I-4] | < 0.2 µM | –
25 | Cc1ccc2c(N)c(C(=O)NCCc3ccc(N4CCNCC4)c(C)c3)sc2n1 [Example I-74, 3-Amino-6-methyl-N-(3-methyl-4-(piperazin-1-yl)phenethyl)thieno[2,3-b]pyridine-2-carboxamide] | < 0.2 µM | –
26 | Cc1ccc2c(N)c(C(=O)NCCc3cc(F)c(N4CCNCC4)c(F)c3F)sc2n1 [Compound I-35] | < 0.2 µM | –
27 | Cc1ccc2c(N)c(C(=O)NCCc3cc(F)c(N4CC5CCC(C4)N5)c(F)c3)sc2n1 [Compound I-45] | < 0.2 µM | –
28 | Cc1nc2sc(C(=O)NCCc3cc(F)c(N4CCNCC4)cc3F)c(N)c2cc1F [Compound I-46] | 0.2 to 2 µM | –
29 | CNc1ccc2c(N)c(C(=O)NCCc3ccc(N4CCNCC4)cc3)sc2n1 [Example I-187] | 0.2 to 2 µM | –
30 | Cc1cnc2sc(C(=O)NCCc3ccc(N4CCNCC4)c(Cl)c3)c(N)c2c1 [Compound I-32] | 2 to 10 µM | –
31 | Nc1c(C(=O)NCCc2ccc(N3CCNCC3)c(Cl)c2)sc2ncc(F)cc12 [Compound I-39] | 2 to 10 µM | –
32 | Cc1ccc2c(N)c(C(=O)NCCc3c(F)cc(N4CCNCC4)cc3F)sc2n1 [Compound I-42] | 0.2 to 2 µM | –
33 | Cc1ccc2c(N)c(C(=O)NCCc3ccc(-n4ncc5c4CNC5)c(F)c3)sc2n1 [Example I-80] | 2 to 10 µM | –
34 | Cc1ccc2c(N)c(C(=O)NCCc3ccc(N4CCN(CCN5CCCC5)CC4)cc3)sc2n1 [Example I-119] | 2 to 10 µM | –
35 | Cc1ccc2c(N)c(C(=O)NCCc3cc(F)c(C4CCNCC4)cc3F)sc2n1 [Example I-113, 3-Amino-N-(2,5-difluoro-4-(piperidin-4-yl)phenethyl)-6-methylthieno[2,3-b]pyridine-2-carboxamide] | < 0.2 µM | –
36 | CN[C@H]1CCN(c2cc(F)c(CCNC(=O)c3sc4nc(C)ccc4c3N)cc2F)C1 [Compound I-50] | 0.2 to 2 µM | –
37 | Nc1c(C(=O)NCCc2ccc(N3CCNCC3)cc2)sc2nc(Cl)ccc12 [Compound I-57] | 0.2 to 2 µM | –
38 | Cc1ccc2c(N)c(C(=O)NC[C@H](C)c3ccc(N4CCNCC4)cc3)sc2n1 (single isomer, unassigned) [Example I-202] | 0.2 to 2 µM | –
39 | Cc1ccc2c(N)c(C(=O)NCCc3cc(F)c(N4CCNCC4)c(Cl)c3)sc2n1 [Compound I-8] | < 0.2 µM | –
40 | Cc1ccc2c(N)c(C(=O)NC[C@@H](C)c3cc(F)c(N4CCNCC4)cc3F)sc2n1 [Example I-207] | 0.2 to 2 µM | –
41 | Cc1ccc2c(N)c(C(=O)NCCc3cc(F)c(N4CCN[C@H](C)C4)cc3F)sc2n1 [Example I-209, (R)-3-amino-N-(2,5-difluoro-4-(3-methylpiperazin-1-yl)phenethyl) -6-methylthieno[2,3-b]pyridine-2-carboxamide] | 10 to 25 µM | –
